Test results as given in the Deep4Chem optical property database.

Experiment: solvent given as SMILES

CC(C)[Si](C#Cc1ccc(C#C[Si](C(C)C)(C(C)C)C(C)C)c2nc3c(nc12)Cc1ccccc1-3)(C(C)C)C(C)C
absorption maximum (in CCCCCC): 369 nm

CN(C)c1ccc(C#Cc2cc(C#Cc3ccc(N(C)C)cc3)c3ccc4c(C#Cc5ccc(C(F)(F)F)cc5)cc(C#Cc5ccc(N(C)C)cc5)c5ccc2c3c54)cc1
absorption maximum (in ClCCl): 506 nm

CCOC(=O)c1c2c3c(ccc(OC)c3c3cc4c(cc13)[Si](C)(C)O[Si]4(C)C)N(C)C2=O
absorption maximum (in CC#N): 378 nm

CCN(CC)c1ccc(-c2nc3c4ccccc4n(C)c3nc2-c2ccc([B-](F)(c3c(C)cc(C)cc3C)c3c(C)cc(C)cc3C)cc2)cc1
absorption maximum (in C1CCOC1): 411.11 nm

c1ccc2c(c1)c1ccccc1n2-c1ccc(-c2cc3ccc(-c4ccc5cc(-c6ccc(-n7c8ccccc8c8ccccc87)cc6)oc5c4)cc3o2)cc1
absorption maximum (in Cc1ccccc1): 365 nm | absorption maximum (in c1ccc2c(c1)c1ccccc1n2-c1ccc(-c2ccc(-n3c4ccccc4c4ccccc43)cc2)cc1): 376 nm

F[B-]1(F)n2c(c(-c3ccccc3)c3ccccc32)C(c2ccccc2)=C2C(c3ccccc3)=c3ccccc3=[N+]21
absorption maximum (in ClCCl): 568 nm

CC(C)(C)c1ccc(-c2cc(-c3ccc(-c4cc(-c5ccc(C(C)(C)C)cc5)c(C#N)s4)s3)sc2C#N)cc1
absorption maximum (in ClCCl): 392 nm

CCCCOc1c(C=C2N(C)c3ccccc3C2(C)C)c(=O)c1=O
absorption maximum (in CCO): 425 nm

CCCCCCC(CCCCCC)N1C(=O)c2cccc3c(-c4ccc(OC)c5ccccc45)ccc(c23)C1=O
absorption maximum (in CCCCCC): 322.6 nm | absorption maximum (in CCCCCCCCCCCCCC): 322.6 nm | absorption maximum (in CCCCCCCCCCCO): 323.8 nm | absorption maximum (in CCCCO): 323.6 nm | absorption maximum (in CN(C)C=O): 323.8 nm | absorption maximum (in Cc1ccccc1): 324 nm | absorption maximum (in ClC(Cl)Cl): 325 nm

O=C1c2ccccc2-c2c(-c3ccccc3)c(-c3ccccc3)c(-c3ccccc3)c3cccc1c23
absorption maximum (in CC#N): 401 nm | absorption maximum (in CO): 407 nm

CC[C@H](C)COc1ccc(C2=C3C(C)=CC(C)=[N+]3[B-](F)(F)n3c(C)cc(C)c32)cc1
absorption maximum (in ClCCl): 501 nm

Cc1ccc2nc3[nH]c(=O)[nH]c(=O)c3nc2c1
absorption maximum (in CC#N): 382 nm | absorption maximum (in ClCCCl): 384 nm

O=P1(c2ccccc2)C(c2ccc(C(F)(F)F)cc2)=Cc2ccccc21 (stereo not drawn)
absorption maximum (in C1CCOC1): 342 nm

CC(C)(C)OC(=O)CN1CCN(c2ccc3c(-c4ccc(I)cc4)c4ccc(=[N+]5CCN(CC(=O)OC(C)(C)C)CC5)cc-4oc3c2)CC1
absorption maximum (in ClCCl): 564 nm

CCCCCCn1c2c(c3cc(-c4ccc5ccc6cccc7ccc4c5c67)ccc31)-c1c(c3cc(-c4ccc5ccc6cccc7ccc4c5c67)ccc3n1CCCCCC)-c1c(c3cc(-c4ccc5ccc6cccc7ccc4c5c67)ccc3n1CCCCCC)-c1c-2c2cc(-c3ccc4ccc5cccc6ccc3c4c56)ccc2n1CCCCCC
absorption maximum (in ClCCl): 340 nm

C[Si](C)(C)c1cc2c(cc3ccc4cccc5ccc2c3c45)[nH]1
absorption maximum (in CCOC(C)=O): 392 nm

CCCCCCOC(=O)/C=C/C1=CC2=C(c3c(C)cc(C)cc3C)c3cc(/C=C/C(=O)OCCCCCC)cn3[B-](F)(F)[N+]2=C1
absorption maximum (in ClCCl): 579 nm

CCCCn1c(-c2ccc(-c3nnc(-c4ccc5ccccc5c4)o3)cc2)nc(-c2ccccc2)c1-c1ccccc1
absorption maximum (in ClCCl): 340 nm

O=C(c1ccc(-n2c3ccc(-c4ccccc4)cc3c3cc(-c4ccccc4)ccc32)cc1)c1ccc(-n2c3ccc(-c4ccccc4)cc3c3cc(-c4ccccc4)ccc32)cc1
absorption maximum (in Cc1ccccc1): 370 nm

FC(F)(F)c1ccc(-c2ncc3ccccn23)cc1
absorption maximum (in ClC(Cl)Cl): 340 nm

COc1ccc(/C=C/C2=CC(/C=C/c3ccc(OC)cc3)=[N+]3C2=C(c2ccc(-c4ccc5ccccc5n4)s2)c2c(/C=C/c4ccc(OC)cc4)cc(/C=C/c4ccc(OC)cc4)n2[B-]3(F)F)cc1
absorption maximum (in C1COCCO1): 708 nm

Cc1cc(C)c2nc3[nH]c(=O)[nH]c(=O)c3nc2c1
absorption maximum (in CC#N): 388 nm

COc1ccc2n1[B-](F)(F)[N+]1=C(c3ccccc3)C=CC1=C2c1ccc(C)cc1
absorption maximum (in C1CCCCC1): 532 nm | absorption maximum (in C1CCOC1): 528 nm | absorption maximum (in C1COCCO1): 529 nm | absorption maximum (in CCOC(C)=O): 526 nm | absorption maximum (in CO): 523 nm | absorption maximum (in Cc1ccccc1): 534 nm | absorption maximum (in ClC(Cl)Cl): 530 nm

F[B-]1(F)N(c2ccccc2)C=Cc2cccc[n+]21
absorption maximum (in C1CCCCC1): 442 nm | absorption maximum (in C1CCOC1): 425 nm | absorption maximum (in CC#N): 412 nm | absorption maximum (in CC(C)=O): 422 nm | absorption maximum (in CCO): 418 nm | absorption maximum (in CCOC(C)=O): 427 nm | absorption maximum (in CO): 417 nm | absorption maximum (in O): 396 nm

CCC(C)(C)c1ccc(-c2ccc(-c3ccccc3)cc2)cc1
absorption maximum (in C1COCCO1): 287 nm

COc1ccc(C2=C(c3ccc(C)cc3)C(c3ccccc3)=[N+]3C2=Nc2c(-c4ccc(OC)cc4)c(-c4ccc(C)cc4)c(-c4ccccc4)n2[B-]3(F)F)cc1
absorption maximum (in Cc1ccccc1): 656 nm

C1=CC2C=c3c(cc4cccc5cc6ccccc6c3c45)C3=c4ccccc4=CC(=C1)C32 (stereo not drawn)
absorption maximum (in ClCCl): 592 nm

CC/[NH+]=c1\cc2oc3cc(NCCC(=O)NC(C)C(=O)OC)c4ccccc4c3nc-2cc1C (stereo not drawn)
absorption maximum (in CCO): 590 nm

O=C1c2cccc3cc4ccccc4c(c23)C(=O)N1Cc1ccccn1
absorption maximum (in C1CCOC1): 432 nm | absorption maximum (in CCCCCC): 427 nm | absorption maximum (in CCO): 436 nm | absorption maximum (in Cc1ccccc1): 435 nm | absorption maximum (in ClCCl): 437 nm

c1ccc(C2=C(c3ccccc3)[Si](c3ccccc3)(c3ccccc3)c3ccccc32)cc1
absorption maximum (in C1CCOC1): 330 nm

CCCCCCCCCCCCCCCC[n+]1ccc(/C=C/c2ccccc2O)cc1
absorption maximum (in C1COCCO1): 558.2 nm | absorption maximum (in CC(C)=O): 547 nm | absorption maximum (in CC(C)O): 520.4 nm | absorption maximum (in CCCCCC): 530.1 nm | absorption maximum (in CCCCO): 523.4 nm | absorption maximum (in CCCO): 518.9 nm | absorption maximum (in CCO): 518.9 nm | absorption maximum (in CN(C)C=O): 549.1 nm | absorption maximum (in CO): 503.8 nm | absorption maximum (in CS(C)=O): 523.4 nm | absorption maximum (in Cc1ccccc1): 554.2 nm | absorption maximum (in ClC(Cl)(Cl)Cl): 548.4 nm | absorption maximum (in ClC(Cl)Cl): 554.2 nm | absorption maximum (in ClCCl): 553.8 nm | absorption maximum (in c1ccccc1): 553.7 nm

CC(C)Nc1cc(F)c(C(=O)c2cc(F)c(NC(C)C)cc2F)cc1F
absorption maximum (in CCO): 357 nm

O=C1Nc2ccccc2/C1=C/C(=O)c1ccc(O)cc1
absorption maximum (in C1CCCCC1): 333 nm | absorption maximum (in C1COCCO1): 334 nm | absorption maximum (in CC#N): 332 nm | absorption maximum (in CC(C)(C)O): 336 nm | absorption maximum (in CC(C)O): 338 nm | absorption maximum (in CCCCCC): 331 nm | absorption maximum (in CCCCO): 337 nm | absorption maximum (in CCOC(C)=O): 334 nm | absorption maximum (in CN(C)C=O): 337 nm | absorption maximum (in CO): 336 nm | absorption maximum (in ClCCl): 336 nm | absorption maximum (in O): 338 nm

O=S(=O)(c1ccc(-c2ccc3c(c2)c2ccccc2n3-c2ccccc2)cc1)c1ccc(-c2ccc3c(c2)c2ccccc2n3-c2ccccc2)cc1
absorption maximum (in Cc1ccccc1): 332 nm

CCCCCCCCCCCCOc1cc(C(=O)Nc2ccc(-c3ccc4c(c3)C(=O)c3cc(-c5ccc(NC(=O)c6cc(OCCCCCCCCCCCC)c(OCCCCCCCCCCCC)c(OCCCCCCCCCCCC)c6)cc5)ccc3-4)cc2)cc(OCCCCCCCCCCCC)c1OCCCCCCCCCCCC
absorption maximum (in C1CCOC1): 447 nm

CCCCCCCCCCn1c(-c2cc(-c3nc4ccccc4n3CCCCCCCCCC)cc(-c3nc4ccccc4n3CCCCCCCCCC)c2)nc2ccccc21
absorption maximum (in ClCCl): 299.5 nm

F[B-]1(F)OC(c2ccccc2)=C(c2ccccc2)c2sc3ccccc3[n+]21
absorption maximum (in C1CCOC1): 360 nm

CN(C)c1ccc(C#Cc2ccc(-c3cc(N(C)C)c4ccccc4c3)cc2)cc1
absorption maximum (in ClCCl): 352 nm

O=Cc1nc2ccc(C#Cc3ccc(N(c4ccccc4)c4ccccc4)cc3)cc2s1
absorption maximum (in Cc1ccccc1): 412 nm

CCCc1ccc(C#Cc2cc(C#Cc3ccc(N(C)C)cc3)c3ccc4c(C#Cc5ccc(N(C)C)cc5)cc(C#Cc5ccc(CCC)cc5)c5ccc2c3c54)cc1
absorption maximum (in ClCCl): 488 nm

O=C1C=C(Nc2ccc(F)cc2[N+](=O)[O-])C(=O)c2ccccc21
absorption maximum (in CO): 448 nm

Nc1ccccc1/C=C/C(F)(F)F
absorption maximum (in C1CCOC1): 347 nm

N#C/C(=C\c1ccc(C#N)cc1)c1nc(-c2ccc(Cl)cc2)c(-c2ccccc2)s1
absorption maximum (in CC#N): 377 nm

Cc1cc(-c2ccc(-c3ccccc3)cc2)cc(C)[o+]1
absorption maximum (in ClCCl): 402 nm

N#Cc1c(-c2ccc(N(c3ccccc3)c3ccccc3)cc2)c(C#N)c(-c2ccc(N(c3ccccc3)c3ccccc3)cc2)c(C#N)c1-c1ccc(N(c2ccccc2)c2ccccc2)cc1
absorption maximum (in O=P(c1ccccc1)(c1ccccc1)c1ccccc1Oc1ccccc1P(=O)(c1ccccc1)c1ccccc1): 420 nm

CB1C=Cc2ccc3ccccc3c2N1
absorption maximum (in C1CCCCC1): 352 nm

N#C/C(=C\c1ccncc1)c1nc(-c2ccc(Cl)cc2)cs1
absorption maximum (in CC#N): 357 nm

CCCN1/C(=C/C=C(/C=C/C2=[N+](CCC)c3ccccc3C2(C)C)c2cc[n+](C)cc2)C(C)(C)c2ccccc21
absorption maximum (in CO): 627 nm | absorption maximum (in CS(C)=O): 637 nm | absorption maximum (in O): 626 nm

N#Cc1ccc(-c2cc3c(ccc4sccc43)s2)cc1
absorption maximum (in ClCCl): 346 nm

CC(C)(C)c1ccc2c(c1)c1cc(C(C)(C)C)ccc1n2-c1ccccc1-c1nc(-c2ccccc2P(=O)(c2ccccc2)c2ccccc2)nc(-c2ccccc2P(=O)(c2ccccc2)c2ccccc2)n1
absorption maximum (in C1CCOC1): 343.56 nm | absorption maximum (in CC#N): 347.54 nm | absorption maximum (in CC(C)=O): 343.88 nm | absorption maximum (in CN(C)C=O): 345.95 nm | absorption maximum (in Cc1ccccc1): 320.35 nm | absorption maximum (in ClC(Cl)Cl): 342.93 nm | absorption maximum (in ClCCl): 341.49 nm

CCCCc1ccc2ccc3c(CCCC)cc(CCCC)c4ccc1c2c34
absorption maximum (in CCCCCC): 352 nm | absorption maximum (in CO): 351 nm | absorption maximum (in ClCCl): 354 nm

c1ccc2cc(-c3cc(-c4nccs4)nc(-c4nccs4)c3)ccc2c1
absorption maximum (in CC#N): 323 nm | absorption maximum (in CCCCCC): 333 nm | absorption maximum (in CO): 333 nm | absorption maximum (in ClC(Cl)Cl): 329 nm

O=[N+]([O-])c1ccc([N+]2=CC3=C(O[B-]2(F)F)c2ccccc2SC3)cc1
absorption maximum (in ClCCl): 440 nm

C(=C1c2ccccc2CCc2ccccc21)c1ccc(-c2cc(-c3ccc(C=C4c5ccccc5CCc5ccccc54)cc3)cc(-c3ccc(C=C4c5ccccc5CCc5ccccc54)cc3)c2)cc1
absorption maximum (in C1CCOC1): 318 nm
